Test results published in paper PMC11649037, “Monitoring conformational changes in the human neurotransmitter transporter homologue LeuT with ^19F‐NMR spectroscopy” (Journal of Neurochemistry, 2024).

Target: T1, LeuT (Leucine Transporter) (Aquifex aeolicus, UniProt O67854, K398C)
T1 construct: gene snf; LeuT K398C labelled with BTFA, in DDM micelles
Experiment: 1D […]-NMR, […] L-ala with […] Na+ (shift to outward-facing closed state)
Type: binding

## C[C@H](N)C(=O)O [Alanine]
  1D 19F-NMR, 4 mM L-ala with 200 mM Na+ (shift to outward-facing closed state): Alanine/Na^+ K398C‐BTFA LeuT (Figure 2e) and Phenylalanine/Na^+ K398C‐BTFA LeuT (Figure 2f) which show a similar shift toward S1 resonance
